In article PMC6356585 (Viruses, 2018):
Structures can show the parent of a compound that is named as a salt. Where two headings read alike, the source gives them in different places.

Legend:
ZIKV SPH [1] = experiment: Autophagy compound library screen, ZIKV SPH titer (TCID50) in C6/36 cells; assay type: cell-based, Zika virus; conditions: 10 µM compound, MOI 0.1, 96 h, TCID50, ± SEM, three independent trials; for activity at 10 µM: Zika virus, C6/36, read-out: ZIKV SPH Relative Titer in C6/36 Cells
Vero cells = experiment: Cell viability (CellTiter-Glo) of Vero cells; assay type: cell-based
C6/36 cells = assay type: cell-based, Ae. albopictus
ZIKV SPH [2] = experiment: Autophagy compound library screen, ZIKV SPH titer (TCID50) in Vero cells; assay type: cell-based, Zika virus; conditions: 10 µM compound, MOI 0.1, 40 h, TCID50; ± SEM, three independent trials
[3] = 10 µM compound, 40 h, CellTiter-Glo, ± SEM, three independent trials
[4] = 10 µM compound, 96 h, CellTiter-Glo, ± SEM, three independent trials

Row | Molecule | ZIKV SPH Relative Titer in C6/36 Cells (ZIKV SPH [1]) | Vero Viability (Vero cells; [3]) | C6/36 Viability (C6/36 cells; [4]) | ZIKV SPH Relative Titer in Vero Cells (ZIKV SPH [2]) | Vero Viability (Vero cells; 10 µM) | activity at 10 µM (ZIKV SPH [1]) | C6/36 Viability (C6/36 cells; 10 µM)
1 | COC(=O)C1=C(C)NC(C)=C([N+](=O)[O-])C1c1ccccc1C(F)(F)F (racemic) [(±)Bay K8644] | 39.4 ± 10.7% of untreated control | 94.0 ± 3% of untreated control | 53 ± 11.1% of untreated control | 34.9 ± 15.2% of untreated control |  |  | 
2 | Nc1ncnc2c1nc(Sc1ccc(Cl)cc1)n2[C@@H]1O[C@@H]2COP(=O)([O-])O[C@H]2[C@H]1O.[Na+] [8-CPT-cAMP·Na] | 60.1 ± 18.3% of untreated control | 92.7 ± 0.7% of untreated control | 75 ± 3.7% of untreated control | 107.8 ± 65.3% of untreated control |  |  | 
3 | Cl.O=C(NCc1ccncc1)C12CC3C[C@H](C1)CC(c1ccc(Cl)cc1)(C3)C2 [ABC294640·HCl] | 26.0 ± 10.8% of untreated control |  | 32 ± 3.5% of untreated control | 51.7 ± 29.2% of untreated control | 87.7 ± 6.8% of untreated control |  | 
4 | N#CC(C#N)=C(N)/C(C#N)=C/c1ccc(O)cc1 [AG112] | 85.5 ± 21.3% of untreated control | 96.7 ± 3.7% of untreated control | 80 ± 5.8% of untreated control | 77.7 ± 38.2% of untreated control |  |  | 
5 | NC(=O)c1ncn([C@@H]2O[C@H](CO)[C@@H](O)[C@H]2O)c1N [AICAR] | 252.0 ± 115% of untreated control | 90.0 ± 11.1% of untreated control | 125 ± 16.4% of untreated control | 112.3 ± 32.3% of untreated control |  |  | 
6 | CCN(CC)CCCCN1c2ccccc2Oc2ccc(Cl)cc21.Cl [Akt Inhibitor X·HCl] | 0.0 ± 0% of untreated control |  | 7 ± 1.9% of untreated control | 3.5 ± 3.3% of untreated control | 32.3 ± 14.2% of untreated control |  | 
7 | COc1ccc(C[C@H]2NC[C@H](O)[C@H]2OC(C)=O)cc1 [Anisomycin] | 0.0 ± 0% of untreated control | 12.7 ± 4.3% of untreated control | 7 ± 0.9% of untreated control | 0.0 ± 0% of untreated control |  |  | 
8 | C=CCNC1=C2C[C@@H](C)C[C@H](OC)[C@H](O)[C@@H](C)/C=C(\C)[C@H](OC(N)=O)[C@@H](OC)/C=C\C=C(/C)C(=O)NC(=CC1=O)C2=O [Compound 17-AAG, 17-AAG] | 18.2 ± 11.2% of untreated control |  | 79 ± 16.4% of untreated control | 36.4 ± 20.8% of untreated control |  |  | 
9 | Oc1ccc(-c2nc(-c3ccncc3)c(-c3ccc(F)cc3)[nH]2)cc1 [SB202190] |  |  |  |  | 74.3 ± 5.2% of untreated control | 25.9 ± 7.4% | 44 ± 7.9% of untreated control
10 | Cn1cc(C2=C(c3ccc(Cl)cc3Cl)C(=O)NC2=O)c2ccccc21 [SB-216763] |  |  | 63 ± 3.6% of untreated control |  | 80.0 ± 9% of untreated control | 54 ± 21.7% | 
11 | Oc1c2ccccc2c2c3c(cccc13)N=N2 [SP600125] |  |  |  |  | 66.0 ± 2.1% of untreated control | 50.3 ± 19.8% | 132 ± 9% of untreated control
12 | CCN(CC)CCNC(=O)c1c(C)[nH]c(/C=C2\C(=O)Nc3ccc(Cl)cc32)c1C [SU11652] |  |  |  |  | 1.0 ± 0% of untreated control | 0% | 1 ± 0% of untreated control
13 | CCCC(CCC)C(=O)O [Sodium Valproate] |  |  | 111 ± 6.2% of untreated control |  | 92.7 ± 1.2% of untreated control | 111 ± 20.7% | 
14 | NCCCCNCCCN [Spermidine] |  |  |  |  | 78.0 ± 17% of untreated control | 90.2 ± 57.4% | 70 ± 3% of untreated control
15 | CN[C@@H]1C[C@H]2O[C@@](C)([C@@H]1OC)n1c3ccccc3c3c4c(c5c6ccccc6n2c5c31)C(=O)NC4 [Staurosporine] |  | 14.0 ± 1.5% of untreated control | 16 ± 5.3% of untreated control |  |  | 0% | 
16 | CC/C(=C(\c1ccccc1)c1ccc(OCCN(C)C)cc1)c1ccccc1 [Tamoxifen citrate] |  |  | 32 ± 11.9% of untreated control |  | 60.7 ± 18.4% of untreated control | 8.2 ± 7.3% | 
17 | Cn1nnc2c(C(N)=O)ncn2c1=O [Temozolomide] |  |  |  |  | 104.7 ± 1.9% of untreated control | 219 ± 49.8% | 113 ± 9.2% of untreated control
18 | C/C=C(/C)C(=O)O[C@H]1C(C)=C2[C@H]([C@@H]1OC(=O)CCCCCCC)[C@@](C)(OC(C)=O)C[C@H](OC(=O)CCC)[C@@]1(O)[C@H]2OC(=O)[C@@]1(C)O [Thapsigargin] |  |  |  |  | 38.0 ± 10.5% of untreated control | 0% | 23 ± 3.9% of untreated control
19 | C[C@H]1CC[C@@]2(OC1)O[C@H]1C[C@H]3[C@@H]4CC[C@@H]5C[C@@H](O[C@@H]6O[C@H](CO)[C@H](O)[C@H](O)[C@H]6O[C@@H]6O[C@H](CO)[C@@H](O)[C@H](O)[C@H]6O)CC[C@]5(C)[C@H]4CC[C@]3(C)[C@H]1[C@@H]2C [Timosaponin A-III] |  |  | 67 ± 3.6% of untreated control |  | 38.7 ± 11.9% of untreated control | 13 ± 5.2% | 
20 | Cc1ccc(S(=O)(=O)NC(=O)NN2CCCCCC2)cc1 [Tolazamide] |  |  | 113 ± 7.3% of untreated control |  | 99.0 ± 1.5% of untreated control | 120 ± 33.7% | 
21 | COc1ccc(CCN(C)CCCC(C#N)(c2ccc(OC)c(OC)c2)C(C)C)cc1OC (stereo not drawn) [Verapamil·HCl] |  | 87.7 ± 0.9% of untreated control | 71 ± 2.9% of untreated control |  |  | 89 ± 40.8% | 
22 | Penitrem A | 29.8 ± 6.4% of untreated control |  |  | 34.9 ± 10.4% of untreated control |  |  | 
